Results taken from the NIST ThermoML archive (doi:10.1016/j.jct.2012.07.008).
Numbers after ± are expanded uncertainties.

Test: molar enthalpy of vaporization or sublimation
Conditions: 298.15 K; Liquid; drop calorimetry

For `O=C1CCCc2occc21` [6,7-dihydrobenzofuran-4(5H)-one], the molar enthalpy was 16.6 ± 1.05 kcal/mol.
